# pKd: −log10 of the molar value.
# Columns and labels:
# PPARγ [1] = biological target: T1, PPARγ (Homo sapiens, UniProt P37231); assay: competitive TR-FRET binding assay (terbium donor, Fluormone Green tracer displacement)
# T1 construct: gene PPARG
# T1 sequence (P37231 231-505 limits assumed): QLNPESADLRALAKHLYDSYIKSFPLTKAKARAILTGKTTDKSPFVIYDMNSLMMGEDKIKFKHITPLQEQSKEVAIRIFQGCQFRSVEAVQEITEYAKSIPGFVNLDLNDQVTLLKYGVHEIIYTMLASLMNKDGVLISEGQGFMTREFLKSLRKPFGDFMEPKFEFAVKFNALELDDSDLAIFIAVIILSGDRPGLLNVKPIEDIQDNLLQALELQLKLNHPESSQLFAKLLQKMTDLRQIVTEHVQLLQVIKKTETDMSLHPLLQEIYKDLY
# PPARγ [2] = biological target: T2, PPARγ (Mus musculus, UniProt P37238); assay: GAL4-UAS luciferase transactivation assay in HEK293T/[…] cells; type: cell-based
# T2 construct: gene Pparg
# T2 sequence (P37238 193-505): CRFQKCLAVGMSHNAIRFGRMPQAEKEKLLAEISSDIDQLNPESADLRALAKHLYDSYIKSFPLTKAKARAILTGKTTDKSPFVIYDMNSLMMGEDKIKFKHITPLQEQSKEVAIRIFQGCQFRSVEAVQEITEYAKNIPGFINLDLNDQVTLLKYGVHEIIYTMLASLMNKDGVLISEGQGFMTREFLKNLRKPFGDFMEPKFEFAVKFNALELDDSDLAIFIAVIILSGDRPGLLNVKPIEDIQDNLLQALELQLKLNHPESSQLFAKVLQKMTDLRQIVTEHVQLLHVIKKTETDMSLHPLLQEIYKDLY
smiles,measurement,setting,value
CCCCC(CC)COC(=O)CC(C(=O)OCC(CC)CCCC)S(=O)(=O)O (centres unmarked) [DOSS],pKd,PPARγ [1],5.86
same,GAL4-UAS luciferase transactivation assay in HEK293T/17 cells,PPARγ [2],DOSS alone elicited dose-dependent increases in PPARγ-driven luciferase expression in the low ppm range

# From article PMC4710608 (Environmental Health Perspectives, 2015)
